Literature values as cited in article PMC11876601 (Molecular Systems Biology, 2025).
Where two headings read alike, the source gives them in different places.

Legend:
CHEK1 = conditions: cited from earlier work; for Kd: read-out: KDapp
ACVR1B = tested on: ACVR1B; design: method as in Klaeger et al. (2017); conditions: lysate 4 cell line mix (Colo205, K-562, MV-4-11, and SK-N-BE(2)), Kinobeads y, ref Klaeger et al. (2017); cited from earlier work
TBK1 = tested on: TBK1; design: method as in Klaeger et al. (2017); conditions: lysate 4 cell line mix (Colo205, K-562, MV-4-11, and SK-N-BE(2)), Kinobeads y, ref Klaeger et al. (2017); cited from earlier work
PDGFRB = tested on: PDGFRB; design: method as in Klaeger et al. (2017); conditions: lysate 4 cell line mix (Colo205, K-562, MV-4-11, and SK-N-BE(2)), Kinobeads y, ref Klaeger et al. (2017); cited from earlier work
CLK1 = conditions: cited from earlier work
RPS6KA1 = tested on: RPS6KA1; design: method as in Klaeger et al. (2017); conditions: lysate 4 cell line mix (Colo205, K-562, MV-4-11, and SK-N-BE(2)), Kinobeads y, ref Klaeger et al. (2017); cited from earlier work
ERN1 = conditions: cited from earlier work
RET = conditions: cited from earlier work
PRKD3 = conditions: cited from earlier work
AAK1 = conditions: cited from earlier work
Q6ZSR9 = conditions: cited from earlier work
MAP4K1 = conditions: cited from earlier work
MAPK10 = conditions: cited from earlier work
PAK4 = conditions: cited from earlier work
RPS6KA4 = conditions: cited from earlier work
PKN1 = conditions: cited from earlier work
LOC102724428;SIK1 = tested on: LOC102724428;SIK1; design: method as in Reinecke et al. (2023); conditions: LOC102724428;SIK1, 5 cell line mix lysate, Kinobeads ε, ref Reinecke et al. (2023), cited from earlier work
JAK1 = tested on: JAK1; design: method as in Reinecke et al. (2023); conditions: JAK1, 5 cell line mix lysate, Kinobeads ε, ref Reinecke et al. (2023), cited from earlier work
EGFR = biological target: EGFR; design: method as in Reinecke et al. (2023); conditions: 5 cell line mix lysate, Kinobeads ε, ref Reinecke et al. (2023), cited from earlier work
SIK3 = tested on: SIK3; design: method as in Reinecke et al. (2023); conditions: SIK3, 5 cell line mix lysate, Kinobeads ε, ref Reinecke et al. (2023), cited from earlier work
TRAF2 = tested on: TRAF2; design: method as in Reinecke et al. (2023); conditions: TRAF2, 5 cell line mix lysate, Kinobeads ε, ref Reinecke et al. (2023), cited from earlier work
[1] = CHEK1, 5 cell line mix lysate, Kinobeads ε, ref Reinecke et al. (2023)
[2] = CLK1, 5 cell line mix lysate, Kinobeads ε, ref Reinecke et al. (2023)
[3] = ERN1, 5 cell line mix lysate, Kinobeads ε, ref Reinecke et al. (2023)
[4] = 5 cell line mix lysate, Kinobeads ε, ref Reinecke et al. (2023)
[5] = PRKD3, 5 cell line mix lysate, Kinobeads ε, ref Reinecke et al. (2023)
[6] = AAK1, 5 cell line mix lysate, Kinobeads ε, ref Reinecke et al. (2023)
[7] = Q6ZSR9, 5 cell line mix lysate, Kinobeads ε, ref Reinecke et al. (2023)
[8] = MAP4K1, 5 cell line mix lysate, Kinobeads ε, ref Reinecke et al. (2023)
[9] = MAPK10, 5 cell line mix lysate, Kinobeads ε, ref Reinecke et al. (2023)
[10] = PAK4, 5 cell line mix lysate, Kinobeads ε, ref Reinecke et al. (2023)
[11] = RPS6KA4, 5 cell line mix lysate, Kinobeads ε, ref Reinecke et al. (2023)
[12] = PKN1, 5 cell line mix lysate, Kinobeads ε, ref Reinecke et al. (2023)

Compound: C[C@]12O[C@H](C[C@]1(O)CO)n1c3ccccc3c3c4c(c5c6ccccc6n2c5c31)CNC4=O [Lestaurtinib]
- EC50 (RPS6KA1): 3290 nM
- EC50 (Q6ZSR9; Q6ZSR9, 4 cell line mix lysate, Kinobeads y, ref Klaeger et al. (2017)): 105 nM
- EC50 (MAP4K1; MAP4K1, 4 cell line mix lysate, Kinobeads y, ref Klaeger et al. (2017)): 347 nM
- EC50 (MAPK10; MAPK10, 4 cell line mix lysate, Kinobeads y, ref Klaeger et al. (2017)): 33.2 nM

Compound: COc1cc(N2CCC(N3CCN(C)CC3)CC2)ccc1Nc1ncc(Cl)c(Nc2ccccc2P(C)(C)=O)n1 [Brigatinib]
- EC50 (CHEK1; [1]): 70.5 nM
- pKDapp (CHEK1; [1]): 7.24
- Kd (CHEK1; [1]): 58.2 nM
- Kd (CHEK1; Kinobeads, ref Klaeger et al, 2017a, Reinecke et al, 2023a): 70 nM
- EC50 (CLK1; [2]): 13.1 nM
- pKDapp (CLK1; [2]): 8.03
- Kd (CLK1; CLK1, 5 cell line mix lysate, Kinobeads ε, ref Reinecke et al. (2023), read-out: KDapp): 9.35 nM
- EC50 (LOC102724428;SIK1): 106 nM
- pKDapp (LOC102724428;SIK1): 6.98
- Kd (LOC102724428;SIK1; read-out: KDapp): 106 nM
- EC50 (ERN1; [3]): 142 nM
- pKDapp (ERN1; [3]): 6.94
- Kd (ERN1; ERN1, 5 cell line mix lysate, Kinobeads ε, ref Reinecke et al. (2023), read-out: KDapp): 115 nM
- Kd (RET; 5 cell line mix lysate, Kinobeads ε, ref Reinecke et al. (2023), read-out: KDapp): 125 nM
- EC50 (RET; [4]): 283 nM
- pKDapp (RET; [4]): 6.90
- EC50 (JAK1): 373 nM
- pKDapp (JAK1): 6.86
- Kd (JAK1; read-out: KDapp): 139 nM
- Kd (EGFR; read-out: KDapp): 146 nM
- EC50 (EGFR): 184 nM
- pKDapp (EGFR): 6.84
- EC50 (PRKD3; [5]): 259 nM
- pKDapp (PRKD3; [5]): 6.72
- Kd (PRKD3; PRKD3, 5 cell line mix lysate, Kinobeads ε, ref Reinecke et al. (2023), read-out: KDapp): 192 nM
- EC50 (AAK1; [6]): 328 nM
- pKDapp (AAK1; [6]): 6.66
- Kd (AAK1; AAK1, 5 cell line mix lysate, Kinobeads ε, ref Reinecke et al. (2023), read-out: KDapp): 220 nM
- EC50 (Q6ZSR9; [7]): 296 nM
- pKDapp (Q6ZSR9; [7]): 6.65
- Kd (Q6ZSR9; Q6ZSR9, 5 cell line mix lysate, Kinobeads ε, ref Reinecke et al. (2023), read-out: KDapp): 225 nM
- EC50 (MAP4K1; [8]): 716 nM
- pKDapp (MAP4K1; [8]): 6.28
- Kd (MAP4K1; MAP4K1, 5 cell line mix lysate, Kinobeads ε, ref Reinecke et al. (2023), read-out: KDapp): 520 nM
- EC50 (MAPK10; [9]): 789 nM
- pKDapp (MAPK10; [9]): 6.18
- Kd (MAPK10; MAPK10, 5 cell line mix lysate, Kinobeads ε, ref Reinecke et al. (2023), read-out: KDapp): 663 nM
- EC50 (PAK4; [10]): 1190 nM
- pKDapp (PAK4; [10]): 6.14
- Kd (PAK4; PAK4, 5 cell line mix lysate, Kinobeads ε, ref Reinecke et al. (2023), read-out: KDapp): 718 nM
- EC50 (RPS6KA4; [11]): 2080 nM
- pKDapp (RPS6KA4; [11]): 5.89
- Kd (RPS6KA4; RPS6KA4, 5 cell line mix lysate, Kinobeads ε, ref Reinecke et al. (2023), read-out: KDapp): 1290 nM
- EC50 (SIK3): 1770 nM
- pKDapp (SIK3): 5.84
- Kd (SIK3; read-out: KDapp): 1450 nM
- EC50 (PKN1; [12]): 2270 nM
- pKDapp (PKN1; [12]): 5.70
- Kd (PKN1; PKN1, 5 cell line mix lysate, Kinobeads ε, ref Reinecke et al. (2023), read-out: KDapp): 1990 nM
- EC50 (TRAF2): 3940 nM
- pKDapp (TRAF2): 5.48
- Kd (TRAF2; read-out: KDapp): 3280 nM
